Our source for the mortality values is patent publication US20100160326A1, “PEST CONTROL AGENT CONTAINING NOVEL PYRIDYL-METHANAMINE DERIVATIVE OR SALT THEREOF” (ISHIHARA SANGYO KAISHA, LTD., priority 2006, published 2010).

Where two headings read alike, the source gives them in different places. Where only a bound is given, the exact number is not on record here.

Holding throughout (assay type): in vivo
Assay [1] concerns Green Peach Aphid (Myzus persicae). Description: Test on controlling effects against green peach aphid (leaf dip). The conditions noted are these: foliar, 120 h. An excerpt: Test on Controlling Effects Against Green Peach Aphid (Myzus persicae)
Mortality (%)=(1−(number of survived insects/number of treated insects))×100

Assay [2] relates to Common Cutworm (Spodoptera litura). Description: Test on controlling effects against common cutworm (cabbage leaf disk dip). The conditions noted are these: foliar. An excerpt: Test on Controlling Effects Against Common Cutworm (Spodoptera litura)
Mortality (%)=(Number of dead larvae/number of released larvae)×100

Assay [3] has as its system Two-Spotted Spider Mite (Tetranychus urticae). Put plainly: Test on adults of two-spotted spider mite (kidney bean leaf dip). The conditions noted are these: foliar, adults dipped together with kidney bean leaf, second or third day after the treatment, 25° C. The text has this: Test on Adults of Two-Spotted Spider Mite (Tetranychus urticae)
Mortality of adults (%)=(Number of dead two-spotted spider mites/Number of treated two-spotted spider mites)×100

[4] abbreviates: 800 ppm, Japanese radish leaf dipped about 10 seconds, first instar nymphs, counted 5 days after the treatment, 25° C., read-out: mortality.
Setting [5] is: 800 ppm, cabbage leaf disk dipped about 10 seconds, second-third instar larvae, fifth day after the release, 25° C., read-out: mortality.

As for `O=[N+]([O-])c1cnc(N(Cc2ccccn2)Cc2ccccn2)cc1C(F)(F)F` [Compound No. 9, N,N-BIS(2-PYRIDYLMETHYL)-5-NITRO-4-(TRIFLUOROMETHYL)-2-PYRIDYLAMINE], the mortality at 800 ppm in assay [1] (in Raphanus sativus) and in assay [2] was at least 90% each time.
In the case of `N#Cc1c(C(F)(F)F)cc(N(Cc2ccccn2)Cc2ccccn2)nc1Cl` [Compound No. 24, N,N-bis(2-pyridylmethyl)-6-chloro-5-cyano-4-(trifluoromethyl)-2-pyridylamine], the mortality at 800 ppm in assay [1] (in Raphanus sativus) and in assay [2] was at least 90% throughout.
In the case of `C=CCN(Cc1ccccn1)c1cc(C(F)(F)F)c(Cl)c(Cl)n1` [Compound No. 55, N-ALLYL-N-(2-PYRIDYLMETHYL)-5,6-DICHLORO-4-(TRIFLUOROMETHYL)-2-PYRIDYLAMINE], the mortality at 800 ppm in assay [1] (setting [4]), in assay [2] (setting [5]) and in assay [3] was at least 90% each time.
`FC(F)(F)c1cc(Br)nc(N(Cc2ccccn2)Cc2ccccn2)c1` [Compound No. 90, N,N-BIS(2-PYRIDYLMETHYL)-6-BROMO-4-(TRIFLUOROMETHYL)-2-PYRIDYLAMINE]: the mortality at 800 ppm in assay [1] (setting [4]) and in assay [3] was at least 90% each time.
As to `FC(F)(F)c1cc(N(Cc2ccccn2)Cc2ccccn2)nc(Br)c1Cl` [Compound No. 92, N,N-BIS(2-PYRIDYLMETHYL)-6-BROMO-5-CHLORO-4-(TRIFLUOROMETHYL)-2-PYRIDYLAMINE], the mortality at 800 ppm in assay [1] (setting [4]), in assay [2] (setting [5]) and in assay [3] was at least 90% in each case.
Turning to `C#Cc1nc(N(Cc2ccccn2)Cc2ccccn2)cc(C(F)(F)F)c1Cl` [Compound No. 94, N,N-BIS(2-PYRIDYLMETHYL)-5-CHLORO-6-ETHYNYL-4-(TRIFLUOROMETHYL)-2-PYRIDYLAMINE], the mortality at 800 ppm in assay [1] (setting [4]) and in assay [3] was at least 90% throughout.
Turning to `CC(c1cccnc1)N(Cc1ccccn1)c1cc(C(F)(F)F)c(Cl)c(Cl)n1` (stereo not drawn) [Compound No. 97, N-(1-(3-PYRIDYL)ETHYL)-N-(2-PYRIDYLMETHYL)-5,6-DICHLORO-4-TRIFLUOROMETHYL-2-PYRIDYLAMINE], the mortality at 800 ppm in assay [1] (setting [4]), in assay [2] (setting [5]) and in assay [3] was at least 90% in each case.
For `FC(F)(F)c1cc(N(Cc2ccccn2)Cc2ccccn2)nc(C(F)(F)F)c1Cl` [Compound No. 103, N,N-BIS(2-PYRIDYLMETHYL)-5-CHLORO-4,6-BIS(TRIFLUOROMETHYL)-2-PYRIDYLAMINE], the mortality at 800 ppm in assay [1] (setting [4]), in assay [2] (setting [5]) and in assay [3] was at least 90% in each case.
Take `FC(F)(F)c1cc(NCc2ccccn2)nc(Cl)c1Cl` [Compound No. 118, N-(2-PYRIDYLMETHYL)-5,6-DICHLORO-4-(TRIFLUOROMETHYL)-2-PYRIDYLAMINE]: the mortality at 800 ppm in assay [1] (setting [4]), in assay [2] (setting [5]) and in assay [3] was at least 90% throughout.
For `FC(F)(F)c1cc(Cl)nc(NCc2ccccn2)c1` [Compound No. 128, N-(2-PYRIDYLMETHYL)-6-CHLORO-4-(TRIFLUOROMETHYL)-2-PYRIDYLAMINE], in assay [1] (setting [4]), the mortality at 800 ppm was at least 90%.

The term mortality denotes the percentage killed.
